Measurements from ChEMBL document CHEMBL5325470, “Design, synthesis and mechanism studies of dual EZH2/BRD4 inhibitors for cancer therapy” (Bioorg Med Chem, 2023).
Active and inactive are the calls of the source. The rule behind the calls is not given here.

Experiments:
HCT-116 [1] = test: Antiproliferative activity against human HCT-116 cells incubated for 72 hrs by MTT assay; type: functional, cell-based; settings: HCT-116, 72 h
MDA-MB-231 [2] = test: Antiproliferative activity against human MDA-MB-231 cells incubated for 72 hrs by MTT assay; type: functional, cell-based; settings: MDA-MB-231, 72 h
HCT-116 [3] = test: Synergistic antiproliferative activity against human HCT-116 cells at JQ1 and compound 1:1 ratio incubated for 72 hrs by MTT assay; type: functional, cell-based; settings: HCT-116, 72 h
MDA-MB-231 [4] = test: Synergistic antiproliferative activity against human MDA-MB-231 cells at JQ1 and compound 1:1 ratio incubated for 72 hrs by MTT assay; type: functional, cell-based; settings: MDA-MB-231, 72 h
A549 [5] = test: Synergistic antiproliferative activity against human A549 cells at JQ1 and compound 1:1 ratio incubated for 72 hrs by MTT assay; type: functional, cell-based; settings: A549, 72 h
A549 [6] = test: Antiproliferative activity against human A549 cells incubated for 72 hrs by MTT assay; type: functional, cell-based; settings: A549, 72 h
BT-549 [7] = test: Synergistic antiproliferative activity against human BT-549 cells at JQ1 and compound 1:1 ratio incubated for 72 hrs by MTT assay; type: functional, cell-based; settings: BT-549, 72 h
BT-549 [8] = test: Antiproliferative activity against human BT-549 cells incubated for 72 hrs by MTT assay; type: functional, cell-based; settings: BT-549, 72 h
[9] = molecular target: Bromodomain-containing protein 4 (Homo sapiens, UniProt O60885); test: Inhibition of BRD4 BD1 (unknown origin) incubated for 15 mins by TR-FRET method
[10] = Binding affinity to recombinant PRC2 complex (unknown origin) incubated for 3 hrs in presence of SAM; design: species or system Homo sapiens
[11] = molecular target: T1, Histone-lysine N-methyltransferase EZH2 (Homo sapiens, UniProt Q15910); test: Inhibition of EZH2 in human A549 cells assessed as decrease in H3K27ac level at 2 to 8 uM incubated for 48 hrs by Western blotting analysis; type: cell-based; settings: dose 2-8 µM
T1 sequence (Q15910 whole entry, looked up): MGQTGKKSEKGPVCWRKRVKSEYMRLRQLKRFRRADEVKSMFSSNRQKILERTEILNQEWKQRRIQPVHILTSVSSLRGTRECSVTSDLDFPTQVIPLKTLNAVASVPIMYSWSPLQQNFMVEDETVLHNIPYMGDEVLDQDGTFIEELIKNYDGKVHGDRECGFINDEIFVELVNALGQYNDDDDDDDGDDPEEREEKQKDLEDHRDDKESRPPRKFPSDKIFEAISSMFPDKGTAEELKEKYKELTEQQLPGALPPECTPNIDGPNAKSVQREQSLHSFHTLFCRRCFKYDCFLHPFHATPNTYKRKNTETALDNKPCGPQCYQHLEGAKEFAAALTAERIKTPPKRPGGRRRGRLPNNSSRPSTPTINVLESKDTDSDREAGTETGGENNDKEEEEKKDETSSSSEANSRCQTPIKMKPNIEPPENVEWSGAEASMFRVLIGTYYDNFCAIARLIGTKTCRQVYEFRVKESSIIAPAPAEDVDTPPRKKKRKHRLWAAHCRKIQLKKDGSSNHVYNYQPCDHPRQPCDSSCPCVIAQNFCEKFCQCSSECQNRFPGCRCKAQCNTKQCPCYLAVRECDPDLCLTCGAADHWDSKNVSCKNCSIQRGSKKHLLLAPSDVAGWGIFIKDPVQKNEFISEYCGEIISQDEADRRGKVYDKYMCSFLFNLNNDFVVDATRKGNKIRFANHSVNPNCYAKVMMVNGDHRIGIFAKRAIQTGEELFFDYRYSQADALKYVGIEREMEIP

[12] = molecular target: T1, Histone-lysine N-methyltransferase EZH2; test: Inhibition of EZH2 in human HCT-116 cells assessed as decrease in H3K27ac level at 2 to 8 uM incubated for 48 hrs by Western blotting analysis; type: cell-based; settings: dose 2-8 µM
[13] = molecular target: T1, Histone-lysine N-methyltransferase EZH2; test: Inhibition of EZH2 in human MDA-MB-231 cells assessed as decrease in H3K27ac level at 2 to 8 uM incubated for 48 hrs by Western blotting analysis; type: cell-based; settings: dose 2-8 µM

SMILES	IC50 (HCT-116 [1]) [µM]	IC50 (MDA-MB-231 [2]) [µM]	IC50 (HCT-116 [3]) [µM]	IC50 (MDA-MB-231 [4]) [µM]	IC50 (A549 [5]) [µM]	IC50 (A549 [6]) [µM]	IC50 (BT-549 [7]) [µM]	IC50 (BT-549 [8]) [µM]	IC50 [9] [µM]	Kd [10] [µM]	inhibition [11]	inhibition [12]	inhibition [13]
Cc1cc(C)c(CNC(=O)c2cc(-c3ccc(N4CCN(C(C)C)CC4)nc3)cc3c2cnn3C(C)C)c(=O)[nH]1	16.9	11.7	0.92	1.1	7.48	16.1	4.73	15.1					
Cc1cc(C)c(CNC(=O)c2cc(NCCCCNC(=O)C[C@@H]3N=C(c4ccc(Cl)cc4)c4c(sc(C)c4C)-n4c(C)nnc43)cc3c2cnn3C(C)C)c(=O)[nH]1	10.2	13.5				> 20		9.57	0.216				
Cc1cc(C)c(CNC(=O)c2cc(NCC3CCN(C(=O)C[C@@H]4N=C(c5ccc(Cl)cc5)c5c(sc(C)c5C)-n5c(C)nnc54)CC3)cc3c2cnn3C(C)C)c(=O)[nH]1	2.18	3.11				4.58		2.12					
Cc1cc(C)c(CNC(=O)c2cc(-c3ccc(N4CCN(C(=O)C[C@@H]5N=C(c6ccc(Cl)cc6)c6c(sc(C)c6C)-n6c(C)nnc65)CC4)nc3)cc3c2cnn3C)c(=O)[nH]1	> 20	11.8				> 20		5.13					
CCCc1cc(C)[nH]c(=O)c1CNC(=O)c1cc(-c2ccc(N3CCN(C(=O)C[C@@H]4N=C(c5ccc(Cl)cc5)c5c(sc(C)c5C)-n5c(C)nnc54)CC3)nc2)cc2c1cnn2C(C)C	> 20	> 20				> 20		> 20					
Cc1cc(C)c(CNC(=O)c2cc(-c3ccc(NC(=O)C[C@@H]4N=C(c5ccc(Cl)cc5)c5c(sc(C)c5C)-n5c(C)nnc54)cc3)cc3c2cnn3C(C)C)c(=O)[nH]1	> 20	> 20				> 20		> 20	> 20				
CCC(C)n1ncc2c(C(=O)NCc3c(C)cc(C)[nH]c3=O)cc(-c3ccc(N4CCN(C(=O)C[C@@H]5N=C(c6ccc(Cl)cc6)c6c(sc(C)c6C)-n6c(C)nnc65)CC4)nc3)cc21 (some centres undefined)	> 20	> 20				> 20		> 20					
Cc1cc(C)c(CNC(=O)c2cc(N3CCC4(CCN(C(=O)C[C@@H]5N=C(c6ccc(Cl)cc6)c6c(sc(C)c6C)-n6c(C)nnc65)C4)CC3)cc3c2cnn3C(C)C)c(=O)[nH]1	2.23	2.87				17.3		3.64					
Cc1cc(C)c(CNC(=O)c2cc(NC3CCN(C(=O)C[C@@H]4N=C(c5ccc(Cl)cc5)c5c(sc(C)c5C)-n5c(C)nnc54)CC3)cc3c2cnn3C(C)C)c(=O)[nH]1	4.28	8.09				> 20		3.91					
Cc1cc(C)c(CNC(=O)c2cc(-c3ccc(NC(=O)CCNC(=O)C[C@@H]4N=C(c5ccc(Cl)cc5)c5c(sc(C)c5C)-n5c(C)nnc54)cc3)cc3c2cnn3C(C)C)c(=O)[nH]1	> 20	6.16				> 20		> 20	0.124	0.464			
Cc1sc2c(c1C)C(c1ccc(Cl)cc1)=N[C@@H](CC(=O)OC(C)(C)C)c1nnc(C)n1-2	3.07	6.17				18.3		3.89					
CC[C@@H](C)n1cc(C)c2c(C(=O)NCc3c(C)cc(C)[nH]c3=O)cc(-c3ccc(N4CCNCC4)nc3)cc21	12.9	11.7	1.76	2.6	4.34	18.6	2.05	9.23		0.0891	inactive	inactive	inactive
Cc1cc(C)c(CNC(=O)c2cc(N3CCC(CNC(=O)C[C@@H]4N=C(c5ccc(Cl)cc5)c5c(sc(C)c5C)-n5c(C)nnc54)CC3)cc3c2cnn3C(C)C)c(=O)[nH]1	5.61	2.07				8.93		3.2	0.353	0.133			
Cc1cc(C)c(CNC(=O)c2cc(-c3ccc(CNC(=O)C[C@@H]4N=C(c5ccc(Cl)cc5)c5c(sc(C)c5C)-n5c(C)nnc54)cc3)cc3c2cnn3C(C)C)c(=O)[nH]1	11.5	3.14				> 20		12.2	0.259				
Cc1cc(C)c(CNC(=O)c2cc(-c3ccc(NC(=O)CCCNC(=O)C[C@@H]4N=C(c5ccc(Cl)cc5)c5c(sc(C)c5C)-n5c(C)nnc54)cc3)cc3c2cnn3C(C)C)c(=O)[nH]1	> 20	7.54				> 20		> 20	0.137	0.376			
Cc1cc(C)c(CNC(=O)c2cc(NCCCNC(=O)C[C@@H]3N=C(c4ccc(Cl)cc4)c4c(sc(C)c4C)-n4c(C)nnc43)cc3c2cnn3C(C)C)c(=O)[nH]1	> 20	15.4				> 20		11.5	0.206				
Cc1cc(C)c(CNC(=O)c2cc(-c3ccc(N4CCN(C(=O)C[C@@H]5N=C(c6ccc(Cl)cc6)c6c(sc(C)c6C)-n6c(C)nnc65)CC4)nc3)cc3c2cnn3C(C)C)c(=O)[nH]1	2.3	> 20				> 20		3.4					
CCn1ncc2c(C(=O)NCc3c(C)cc(C)[nH]c3=O)cc(-c3ccc(N4CCN(C(=O)C[C@@H]5N=C(c6ccc(Cl)cc6)c6c(sc(C)c6C)-n6c(C)nnc65)CC4)nc3)cc21	6.68	> 20				> 20		3.51					
Cc1cc(C)c(CNC(=O)c2cc(N3CCN(C(=O)C[C@@H]4N=C(c5ccc(Cl)cc5)c5c(sc(C)c5C)-n5c(C)nnc54)CC3)cc3c2cnn3C(C)C)c(=O)[nH]1	> 20	10.9				> 20		3.87					
Cc1cc(C)c(CNC(=O)c2cc(-c3ccc(NC(=O)CNC(=O)C[C@@H]4N=C(c5ccc(Cl)cc5)c5c(sc(C)c5C)-n5c(C)nnc54)cc3)cc3c2cnn3C(C)C)c(=O)[nH]1	2.9	1.24				> 20		10.8	0.138				
Cc1cc(C)c(CNC(=O)c2cc(-c3ccc(N4CCN(C(=O)C[C@@H]5N=C(c6ccc(Cl)cc6)c6c(sc(C)c6C)-n6c(C)nnc65)CC4)cc3)cc3c2cnn3C(C)C)c(=O)[nH]1	17.8	> 20				> 20		> 20					
Cc1cc(C)c(CNC(=O)c2cc(-c3ccc(NC(=O)CCCCNC(=O)C[C@@H]4N=C(c5ccc(Cl)cc5)c5c(sc(C)c5C)-n5c(C)nnc54)cc3)cc3c2cnn3C(C)C)c(=O)[nH]1	6.27	2.21				> 20		10.4	0.055	0.682			
Cc1cc(C)c(CNC(=O)c2cc(NCCCCCCNC(=O)C[C@@H]3N=C(c4ccc(Cl)cc4)c4c(sc(C)c4C)-n4c(C)nnc43)cc3c2cnn3C(C)C)c(=O)[nH]1	1.9	3.23				9.2		4.99	0.138	0.19			
